From PubChem BioAssay AID720689 (NMMLSC, 2013)

Test: protein batch effect on Rab7 inhibitor curves, late-stage follow-up, mechanism study, biochemical, Rab7 wildtype, bead flow cytometry, two protein sources (AID 720689)
Conditions: GST-Rab7 beads, Bodipy-FL-GTP binding

Row | EC50 (protein source 1) | EC50 (protein source 2) | SMILES
1 | 219 nM | 205 nM | CC1(C)Cc2c(sc(NC(=S)NC(=O)c3ccc(N=[N+]=[N-])cc3)c2C(=O)O)CO1
2 | 1260 nM | 1240 nM | CC1(C)Cc2c(sc(NC(=S)NC(=O)c3cccc(N=[N+]=[N-])c3)c2C(=O)O)CO1
